Reference: US4704389A, “Aromatic omega-alkyl-imino-tetrahydro-6H-1,3-thiazin-6-one derivatives” (Merrell Dow Pharmaceuticals Inc., priority 1987, dated 1987)
Where a name gives a salt, the structure may show the parent alone.

Assays:
5-HT1A recognition sites = target: T1, 5-HT1A recognition sites (Rattus norvegicus, UniProt P19327); assay: 5-HT1A radioligand binding ([3H]-8-OH-DPAT); conditions: rat frontal cortex homogenate, 37° C. 15 min, read-out: 5-HT1A Binding Affinity Rat Brain Cortex (pIC50) (converted)
T1 sequence (P19327 1-422): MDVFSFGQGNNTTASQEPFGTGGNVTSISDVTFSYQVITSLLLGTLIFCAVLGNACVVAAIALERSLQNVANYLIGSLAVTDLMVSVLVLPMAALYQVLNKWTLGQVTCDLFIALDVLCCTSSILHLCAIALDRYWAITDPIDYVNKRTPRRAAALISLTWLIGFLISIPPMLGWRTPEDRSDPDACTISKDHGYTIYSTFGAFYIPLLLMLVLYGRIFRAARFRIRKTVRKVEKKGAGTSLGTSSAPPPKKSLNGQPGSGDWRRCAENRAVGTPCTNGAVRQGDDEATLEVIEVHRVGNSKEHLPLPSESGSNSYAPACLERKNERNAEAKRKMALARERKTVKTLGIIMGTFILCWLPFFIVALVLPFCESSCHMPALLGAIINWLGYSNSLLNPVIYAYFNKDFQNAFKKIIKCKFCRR
Method: Radioligand binding studies of the 5-HT1A recognition sites are conducted in the following manner. Male normotensive Sprague-Dawley rat frontal cortex is dissected, frozen in liquid nitrogen and stored at -20° C. until needed. Tissues from 4-8 rats are pooled and homogenized in 70 vol Tris-HCl buffer (50 mM, pH 7.7), using a kinematica Polytron (setting 2/3 max speed, 20 sec). The homogenate is centrifuged (36500×g for 10 min), the pellet re-homogenised in the same volume of buffer and the process is repeated two more times. Between the second and third centrifugations the tissue homogenate is incubated at 37° C. for 10 min. The final pellet is suspended in the same volume of Tris buffer containing 10 µM pargyline, 5.7 mM CaCl2 and 0.1% ascorbic acid. This suspension is incubated for 10 min at 37° C. and then stored on ice until used in the binding assay.
Tissue homogenate (0.7 ml), radioactive ligand (0.1 ml) and the appropriate concentration of test compound (0.1 ml), together with buffer to a final volume of 1 ml are incubated at 37° C. for 15 min. Incubations are terminated by rapid filtration through Whatman GF/B filters followed by three 5 ml washes with ice-cold Tris-HCl buffer (50 mM, pH 7.0). Radioactivity is measured following extraction into Aquasol-Z (NEN) at an efficiency of 45-50%. The radioligand used to label the 5-HT1A recognition sites and its concentration is [^3 H]-8-hydroxy-2-(di-n-propylamino)-tetralin, [^3 H]-8-OH-DPAT, […].
Following essentially the above procedure, the following compounds were tested. Results are expressed as pIC50 ([…] concentration of test compound which inhibits specific binding by 50%).

[1] = tested on: naive adult male Sprague-Dawley rats; assay: Rat licking (Vogel conflict) test for anxiolytic activity; format: in vivo; conditions: subcutaneous, 30 min before test, control 119 ± 30
Method: Following the procedure described by Vogel et al., Psychopharmacologia 21, 1-7 (1971), thirsty naive rats are periodically administered shocks in an appropriate test apparatus for licking water, thereby setting up a simple conflict procedure. In the following experiment, naive adult male Sprague-Dawley rats (approximately 170 g) are randomly divided into 5 groups and deprived of water for 48 hours prior to the test session. Food is available in the home cage at all times.
Thirty minutes following subcutaneous injection, each animal is placed in the apparatus, permitted to find the drinking tube and complete 20 licks before shock is administered. The test animal controls shock duration by withdrawing from the drinking tube. At the termination of the first shock, shocks are delivered following each twentieth lick. The number of licks, indicating the number of shocks taken during a 3 minute period is recorded for each animal, compared with placebo, and with animals treated with established anxiolytic agents. A "release" from suppressed licking response, i.e., a greater number of licks compared to controls, is predictive of anxiolytic activity.
Following essentially this same procedure, the following results are observed utilizing the compound of Example II, i.e., 2-[4-[4-(2-pyrimidinyl)-1-piperazinyl]butylimino]-tetrahydro-4,4-dimethyl- 6H-1,3-thiazin-6-one

CC1(C)CC(=O)SC(=NCCCCNCC2COc3ccccc3O2)N1 (stereo not shown) [Example I, 2-[4-[(2,3-dihydro-1,4-benzodioxin-2-yl)methylamino]butylimino]-tetrahydro-4,4-dimethyl-6H-1,3-thiazin-6-one oxalate]
IC50 (5-HT1A recognition sites): 2.82 nM

O=C1CC2(CCCC2)NC(=NCCCCN2CCN(c3ncccn3)CC2)S1 [Example III, 2-[4-[4-(2-Pyrimidinyl)-1-piperazinyl]-butylimino]-tetrahydro-4,4-tetramethylene-6H-1,3-thiazin-6-one]
IC50 (5-HT1A recognition sites): 166 nM

CN1C(=O)CN=C(c2ccccc2)c2cc(Cl)ccc21 [Diazepam, reference compound]
Licks taken over 3 min. period ([1]; dose 0.75 mg/kg): 247 ± 36

CC1(C)CC(=O)SC(=NCCCCN2CCN(c3ncccn3)CC2)N1 [Example II, 2-[4-[4-(2-Pyrimidinyl)-1-piperazinyl]butylimino]-tetrahydro4,4-dimethyl-6H-1,3-thiazin-6-one]
Licks taken over 3 min. period ([1]; dose 0.05 mg/kg): 150 ± 28 | Licks taken over 3 min. period ([1]; dose 0.25 mg/kg): 223 ± 34 | Licks taken over 3 min. period ([1]; dose 1.25 mg/kg): 220 ± 27 | IC50 (5-HT1A recognition sites): 47.9 nM
